Laboratory results as given in paper PMC5038266 (Antimicrobial Agents and Chemotherapy, 2016).
“Also recorded” adds a separate entry of the source. Read-outs that look alike come from different tables or passages of the source.

Tests used:
[1] = Study 3 safety assessments (adverse events); type: in vivo, human (healthy subjects); settings: efavirenz alone, delamanid alone, and delamanid plus efavirenz
[2] = Study 3: multiple-dose drug-drug interaction pharmacokinetics, delamanid with efavirenz; settings: for Cmax / AUC: human, po; for AUC: Delamanid AUCτ
clinical [3] = settings: human, in vivo, po; for Tmax: Delamanid Tmax
[4] = Study 1: multiple-dose drug-drug interaction pharmacokinetics, delamanid with ethambutol plus Rifater; settings: for AUC / Cmax: human, plasma, po, ethambutol 1100 mg + Rifater once daily, mean ± SD; for AUC: AUCτ of coadministered drug; for Cmax: Cmax of coadministered drug
clinical [5] = settings: human, in vivo, po; for AUC: Delamanid AUCτ
[6] = Study 2: multiple-dose drug-drug interaction pharmacokinetics, delamanid with tenofovir or Kaletra (lopinavir/ritonavir); settings: for Equivalence outcome for steady-state exposure of coadministered drug: coadministered with delamanid
[7] = Study 2 safety assessments (adverse events); type: in vivo, human (healthy subjects); settings: combinations of delamanid with either tenofovir or lopinavir and ritonavir
[8] = human, in vivo
[9] = in vivo
[10] = Study 1; multiple once-daily oral doses of 200 mg delamanid alone and in combination with ethambutol and rifampin/isoniazid/pyrazinamide
MDR-TB = settings: cited from earlier work
CYP enzymes = test system: CYP enzymes; parameters: method as in PMID 17132069; settings: cited from earlier work
[11] = with DLM, day 15, with delamanid 200 mg once daily
[12] = Cmax of coadministered drug, with DLM
[13] = without DLM, day 15, without delamanid
[14] = delamanid plus optimized background regimen for ≤2 months
[15] = ethambutol-Rifater plus delamanid versus ethambutol-Rifater alone

O=C1Nc2ccc(Cl)cc2[C@@](C#CC2CC2)(C(F)(F)F)O1 [Efavirenz]
Tolerability [1]: well tolerated | Effect of delamanid on efavirenz plasma concentrations/exposure [2]: not affected; also recorded: did not affect | AUCτ of coadministered drug, without DLM ([2]; efavirenz 600 mg once daily in the evening for 10 days, without delamanid, mean ± SD): 84.7 ± 37.8 (14) h·µg/ml | Cmax ([2]; plasma, 600 mg, Cmax of coadministered drug, with DLM, efavirenz 600 mg once daily in the evening for 10 days, with delamanid 100 mg twice daily, mean ± SD): 5810 ± 3030 ng/mL | Cmax ([2]; plasma, 600 mg, Cmax of coadministered drug, without DLM, efavirenz 600 mg once daily in the evening for 10 days, without delamanid, mean ± SD): 5950 ± 1670 ng/mL

NNC(=O)c1ccncc1 [Isoniazid]
AUC (clinical [3]; AUCτ of coadministered drug, without DLM, Study 1, ethambutol 1100 mg + Rifater once daily, day 15, without delamanid, mean ± SD): 20000 ± 8000 ng·h/mL | Isoniazid concentrations in slow acetylators versus intermediate/rapid acetylators (NAT2 genotype) [4]: ~2 fold | AUC [4, 11]: 12100 ± 6900 ng·h/mL | Cmax [4, 11]: 4620 ± 980 ng/mL

CC(C)c1nc(CN(C)C(=O)N[C@H](C(=O)N[C@@H](Cc2ccccc2)C[C@H](O)[C@H](Cc2ccccc2)NC(=O)OCc2cncs2)C(C)C)cs1 [Ritonavir]
Cmax (clinical [5]; [12]): 1270 ng/mL | Effect of delamanid on exposure of coadministered drug [6]: not affected | Equivalence outcome for steady-state exposure of coadministered drug [6]: suggested

NC(=O)c1cnccn1 [Pyrazinamide]
Cmax (clinical [3]; Cmax of coadministered drug, without DLM): 49700 ng/mL | AUC [4, 11]: 533000 ± 141000 ng·h/mL | AUC [4, 13]: 488000 ± 90300 ng·h/mL | Cmax [4, 11]: 51400 ± 9060 ng/mL

C[C@]1(COc2ccc(N3CCC(Oc4ccc(OC(F)(F)F)cc4)CC3)cc2)CN=C(N)O1 [DM-6705]
Lower metabolite AUCτ when delamanid coadministered with ethambutol-Rifater ([4]; based on the AUC, versus delamanid alone): 30 to 50% | Higher exposure on coadministration of lopinavir/ritonavir (Kaletra) with delamanid ([6]; delamanid and metabolites, unpublished results for metabolites): approximately 25%

C[C@H](Cn1cnc2c(N)ncnc21)OCP(=O)(O)O [Tenofovir]
Cmax (clinical [5]; [12]): 294 ng/mL | Effect of delamanid on exposure of coadministered drug [6]: not affected | Equivalence outcome for steady-state exposure of coadministered drug [6]: suggested | AUCτ of coadministered drug, with DLM ([6]; tenofovir 300 mg once daily or lopinavir 400 mg/ritonavir 100 mg twice daily, day 14, with delamanid 100 mg twice daily, mean ± SD): 2.850 ± 0.644 (13) h·µg/ml

C[C@]1(COc2ccc(N3CCC(Oc4ccc(OC(F)(F)F)cc4)CC3)cc2)Cn2cc([N+](=O)[O-])nc2O1 [Delamanid]
Tolerability [7]: well tolerated | Tolerability [1]: well tolerated | Delamanid concentrations reached steady state by day [8]: ≤ 15 days | Lower delamanid AUCτ on coadministration with ethambutol plus Rifater [8]: 47% | Lower delamanid Cmax on coadministration with ethambutol plus Rifater [8]: 42% | Delamanid concentrations reached steady-state by day ([9]; human): ≤ 14 days | Delamanid AUCτ ([9]; human, po, 100 mg): 5,830 ± 1,660 ng·h/ml | Delamanid Cmax ([9]; human, po, 100 mg): 734 ± 196 ng/mL | Effect of tenofovir coadministration on delamanid PK/systemic exposure [9]: did not affect | Equivalence outcome for steady-state exposure of delamanid [9]: documented | Tolerability [10]: well tolerated | Improvement of 2-month sputum culture conversion (MDR-TB; MDR-TB patients, delamanid + optimized background regimen for 2 months compared to placebo + optimized background regimen): approximately 50% | Favorable treatment outcomes (MDR-TB; [14]): 55% | Mortality (MDR-TB; [14]): 12.0% | Favorable treatment outcomes (MDR-TB; delamanid plus optimized background regimen for ≥6 months, P < 0.001): 74.5% | Mortality (MDR-TB; delamanid plus optimized background regimen for ≥6 months, P = 0.001): 2.9% | Effects on CYP activities (CYP enzymes; in vitro): neither stimulatory nor inhibitory effects | Metabolism by CYP enzymes (CYP enzymes; incubation of delamanid with liver microsomes, metabolites minimally quantifiable): not metabolized by CYP enzymes | AUC (clinical [3]; 200 mg, Delamanid AUCτ): 3110 ng·h/mL | AUC (clinical [3]; 200 mg, Delamanid AUCτ, Study 1, DLM + PLC, delamanid 200 mg once daily, day 15, plasma, mean ± SD): 5950 ng·h/mL | Cmax (clinical [3]; 200 mg, Delamanid Cmax): 270 ± 38.9 ng/mL | Cmax (clinical [3]; 200 mg, Delamanid Cmax, Study 1, DLM + PLC, delamanid 200 mg once daily, day 15, plasma, mean ± SD): 476 ± 119 ng/mL | Tmax (clinical [3]; 200 mg): 4.06 h | Tmax (clinical [3]; 200 mg, Study 1, DLM + PLC, delamanid 200 mg once daily, day 15, plasma, median (min-max)): 4 h | Tmax (clinical [5]; 100 mg): 4 h | AUC (clinical [5]; 100 mg): 4510 ng·h/mL | AUC (clinical [5]; 100 mg, Study 2, DLM alone, delamanid 100 mg twice daily, day 14, plasma, mean ± SD): 4700 ng·h/mL | Cmax (clinical [5]; 100 mg, Delamanid Cmax): 518 ± 114 ng/mL | Cmax (clinical [5]; 100 mg, Delamanid Cmax, Study 2, DLM alone, delamanid 100 mg twice daily, day 14, plasma, mean ± SD): 617 ± 135 ng/mL | Effect of efavirenz coadministration on delamanid steady-state exposure/PK [2]: did not significantly affect | Delamanid Tmax ([2]; DLM alone, delamanid 100 mg twice daily, day 7 evening dose, median (min-max)): 4.00 (2.00–6.00) h | AUC ([2]; in vivo, 100 mg, DLM + EFV (efavirenz 600 mg once daily for 10 days), delamanid 100 mg twice daily, day 17 evening dose, mean ± SD): 4240 ng·h/mL | AUC ([2]; in vivo, 100 mg, DLM alone, delamanid 100 mg twice daily, day 7 evening dose, mean ± SD): 4380 ng·h/mL | Cmax ([2]; in vivo, 100 mg, Delamanid Cmax, DLM + EFV (efavirenz 600 mg once daily for 10 days), delamanid 100 mg twice daily, day 17 evening dose): 394 ng/mL | Cmax ([2]; in vivo, 100 mg, Delamanid Cmax, DLM alone, delamanid 100 mg twice daily, day 7 evening dose): 391 ng/mL | Effect of CYP2C9 genotype on delamanid PK ([4]; unpublished results): no effect | Equivalence outcome for delamanid exposure ([6]; after lopinavir/ritonavir coadministration): Equivalence was suggested

Cc1cccc(C)c1OCC(=O)N[C@@H](Cc1ccccc1)[C@@H](O)C[C@H](Cc1ccccc1)NC(=O)[C@H](C(C)C)N1CCCNC1=O [Lopinavir]
Effect of delamanid on exposure of coadministered drug [6]: not affected | Equivalence outcome for steady-state exposure of coadministered drug [6]: equivalence was documented | Cmax of coadministered drug, without DLM ([6]; tenofovir 300 mg once daily or lopinavir 400 mg/ritonavir 100 mg twice daily, day 14, without delamanid, mean ± SD): 12.9 ± 3.17 (11) μg/ml

CC[C@@H](CO)NCCN[C@@H](CC)CO [Ethambutol]
Higher AUCτ with delamanid coadministration [4, 15]: approximately 25% | Higher Cmax with delamanid coadministration [4, 15]: approximately 25% | AUC [4, 11]: 22400 ± 4770 ng·h/mL | AUC [4, 13]: 18200 ± 3210 ng·h/mL | Cmax [4, 11]: 4450 ± 820 ng/mL

CO[C@H]1/C=C/O[C@@]2(C)Oc3c(C)c(O)c4c(O)c(c(/C=N/N5CCN(C)CC5)c(O)c4c3C2=O)NC(=O)/C(C)=C\C=C\[C@H](C)[C@H](O)[C@@H](C)[C@@H](O)[C@@H](C)[C@H](OC(C)=O)[C@@H]1C [Rifampin]
AUC (clinical [3]; AUCτ of coadministered drug, with DLM): 55900 ng·h/mL | AUC (clinical [3]; AUCτ of coadministered drug, without DLM): 48200 ng·h/mL | Cmax (clinical [3]; [12]): 13200 ng/mL
